Assay results from PubChem BioAssay (NCI).
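Where inhibition never reached the appropriate level, the endpoint shown equals the highest concentration tested. Otherwise, values were interpolated linearly from a five-concentration, 48-hour dose response in 96-well plates. Definition used: TGI = concentration required for complete inhibition of growth.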

Tests used:
Test in all cases: inhibition of tumour cell growth, NCI panel, 48 h
[1] = test system: U251 CNS
[2] = test system: HCT-116 colon
[3] = test system: HOP-62 NSCLC
[4] = test system: HCC-2998 colon

SMILES	TGI [1] [µM]	TGI [2] [µM]	TGI [3] [µM]	TGI [4] [µM]
C=CCn1c(=O)c2ccccc2[n+]2c(-c3cccc([N+](=O)[O-])c3)csc12	> 100	> 100	> 100	> 100
CN(C)C=Nc1nncc2n[nH]nc12	> 100	> 100	> 100	–
Cc1cccc2c1C(=O)[C@@](C)([C@]1(C)Nc3cccc(C)c3C1=O)N2	> 100	> 100	> 100	> 100
CCC1CCC2c3c([nH]c4ccccc34)C3C(=O)N(c4ccc(OC)cc4)C(=O)C3C2C1 (configuration not stated)	36.2	> 100	> 100	> 100
COc1ccc(C(C)NNC(=O)c2ccncc2)cc1F (configuration not stated)	> 100	> 100	> 100	> 100
O=S(=O)(/N=C1/SC(=Nc2ccccc2)N(c2ccccc2)/C1=N/S(=O)(=O)c1ccccc1)c1ccccc1	70.7	38.4	80.4	48.7
Cc1nnc2sc(-c3ccc([N+](=O)[O-])o3)nn12	27.9	20.7	28.5	25
COc1ccc(N2C(=O)/C(=C/c3ccc(N(CCC#N)CCC#N)cc3)N=C2c2ccccc2)c(OC)c1	> 100	> 100	–	> 100
CCOC(=O)c1cn(C)nc1N/C(C)=C\C(=O)c1ccccc1	> 100	–	> 100	> 100
COC1=CC(=O)c2c(cc(COP(=O)(N(C)CCBr)N(C)CCBr)n2C)C1=O	8.43	4.85	5.23	1.77
Cc1ccc2c(=O)c(C(=O)N(CCO)CCO)c[nH]c2n1	> 100	> 100	> 100	–
Cc1nn(-c2ccccn2)c2c1C(SC#N)=C(C=O)CC2	28.8	37.1	22.3	24.2
C=C1C(=O)O[C@H]2C/C(C=O)=C\[C@H]3O[C@H]3/C(COC(=O)C(C)C)=C/CC12 (some centres not stated)	19.6	10.1	26.5	27.2
CCOC(=O)C1=C(C)N(c2ccc(C)cc2)C2(O)C=CC(=O)C3=C(O)c4ccccc4C(=O)C312 (configuration not stated)	> 100	> 100	> 100	59.4
O=C(NCCCCNCCCNC(=O)OCc1ccccc1)OCc1ccccc1	> 100	70	> 100	38.7
COc1ccc(C2=NNC(=O)c3ccccc3N2c2nc(-c3cccs3)nc3ccc(Br)cc23)cc1	> 100	> 100	49.5	–
OC(O)(C(F)(F)F)C(F)(F)F	> 100	> 100	> 100	> 100
COc1ccc(NS(=O)c2cccc(C)c2)cc1 (configuration not stated)	> 100	> 100	> 100	33.6
CCOC(=O)c1c(-c2ccc(OC)c(O)c2)c(C#N)c(=S)n(C2OC(CO)C(O)C(O)C2O)c1-c1ccccc1 (configuration not stated)	> 100	> 100	> 100	> 100
CC(C)c1nccn1Cc1ccc(Cl)cc1Cl	> 100	63.4	> 100	88.6
COC(=O)C[C@H](CCSC)NC(=O)C[C@H](CCSC)NC(=O)C[C@H](CCSC)NC(=O)OC(C)(C)C	56	> 100	> 100	> 100
Cc1cccc(C(O)c2cccnc2)c1O (configuration not stated)	> 100	> 100	> 100	> 100
O=C(Nc1nc(C23CC4CC(CC(C4)C2)C3)cs1)c1cc2cc([N+](=O)[O-])ccc2oc1=O	> 100	> 100	> 100	> 100
C=C1C(=O)O[C@H]2[C@H]([C@H](C)CCCC(C)=O)O[C@H]([C@@]3(C)CCC(=O)O3)C[C@@H]12	> 100	85.5	> 100	> 100
CCOC(=O)N1C(=S)C(C(=O)OC)(C(=O)OC)N=C1C	> 100	> 100	> 100	> 100
CSc1ccccc1P(CCP(c1ccccc1SC)c1ccccc1SC)c1ccccc1SC	> 100	> 100	> 100	> 100
COc1ccc(C2NC(=O)Nc3c2c(=O)oc2c3ccc3ccccc32)cc1 (configuration not stated)	> 100	> 100	> 100	–

SMILES	TGI [1] [µM]	TGI [2] [µM]	TGI [3] [µM]	TGI [4] [µM]
COc1cc2c(cc1O)CC[C@@H]1C2CC[C@@]2(C)C1CC[C@@H]2O (some centres not stated)	> 62.4	> 81	45.8	34.3
CC1(C)CC(=O)C(=CN2C(=O)CNC2=S)C(=O)C1	> 100	> 100	> 100	> 100
C/C(=C\c1ccccc1)C(=O)NCc1ccc(C(=O)NCCc2c[nH]c3ccccc23)cc1	> 100	> 100	> 100	96.3
c1ccc2c(c1)c1c3n2-c2cc(on2)C3CCC1 (configuration not stated)	> 100	> 100	> 100	> 100
CCOC(=O)CCC(C(=O)OCC)n1nnc2cc(Nc3c(C)[n+]([O-])c4ccc(Cl)cc4[n+]3[O-])ccc21 (configuration not stated)	> 100	> 100	> 100	–
CC(C)CC(NC(=O)C(COc1ccc([N+](=O)[O-])cc1)Cc1ccccc1)C(=O)Nc1ccccc1 (configuration not stated)	28.7	> 100	–	80.2
COc1cccc(C2CC(=O)c3cccn32)c1 (configuration not stated)	> 100	> 100	> 100	> 100
S=C(Nc1ccc2c(c1)Cc1ccccc1-2)Nc1ccc2c(c1)Cc1ccccc1-2	> 100	> 100	> 100	> 100
C[n+]1c(-c2ccc(/C=N/Nc3ccnc(N/N=C/c4ccc(-c5cn6ccccc6[n+]5C)cc4)n3)cc2)cn2ccccc21	–	> 100	> 100	> 100
N#Cc1c(C#N)c(-c2ccccc2)n(/N=C\c2ccccc2)c1N	47.4	> 100	> 100	89.9
COC(=O)c1c(C#C[Si](C)(C)C)c(C#C[Si](C)(C)C)c(C#C[Si](C)(C)C)c(C#C[Si](C)(C)C)c1C(=O)OC	> 100	> 100	–	> 100
O=C(O)CCCc1ccc2c(c1)CC1(C2)Cc2ccc(CCCC(=O)O)cc2C1	> 100	> 100	> 100	> 100
Cc1ccc([N+](=O)[O-])cc1NC(=O)C(=O)C1CCC2=C(Sc3ccccc3N2)C1=O (configuration not stated)	> 100	> 100	> 100	> 100
CC1(C)Oc2ccc3c(=O)c4ccccc4oc3c2C1C(=O)O (configuration not stated)	> 100	> 100	> 100	> 100
C=C(C(=O)OC)[C@H]1CC/C(C)=C/CC/C(C)=C/CC[C@@]2(C)O[C@@H]2C1	44	28.7	42.5	30.8
C=C1C(=O)O[C@H]2C3C(=C(C)CC[C@@H]12)C(=O)[C@@H]1OC31C (some centres not stated)	26.3	2.7	28.6	29.7
CCCCCCCCCCCCCCCCNc1ccn(C2CC(OP(=O)(O)OCC3OC(n4cc(CC)c(=O)[nH]c4=O)CC3O)C(CO)O2)c(=O)n1 (configuration not stated)	89.3	> 100	53.9	88
CC1(C)CC2(C)OC(=N)C1(C#N)C2(C#N)C#N (configuration not stated)	29.3	20.1	–	24.4
O=C(NCc1cccnc1)C(=O)NCc1cccnc1	> 100	> 100	> 100	> 100
COc1cc(-c2[o+]c3cc(O)cc(OC4OC(CO)C(O)C(O)C4O)c3cc2OC2OC(CO)C(O)C(O)C2O)cc(OC)c1O (configuration not stated)	> 100	> 100	> 100	> 100
O=C(/C=C/c1ccccc1)CCc1c(O)c2ccccc2oc1=O	> 100	> 100	–	> 100
O=c1/c(=C/c2ccc(-c3ccc(Cl)cc3Cl)o2)sc2n1[C@@H](c1ccc3c(c1)OCO3)C=C(c1cc(F)c(Cl)cc1Cl)N=2	> 100	> 100	28.9	–
COc1cc(S(=O)(=O)N/N=C/c2cc(Br)c(O)c(OC)c2)c(OC)cc1NC(C)=O	> 100	> 100	> 100	–
CSC1NNC2(C(=O)N1)c1ccccc1-c1ccccc12 (configuration not stated)	–	> 10	> 10	> 10
COC(=O)C1=C(C)NC2(C)OC(C)(O)C(C(C)=O)C12C(C)=O (configuration not stated)	> 100	> 100	> 100	–
Oc1ccc2ccccc2c1OCc1nnc(CCCCCCCCc2nnc(COc3c(O)ccc4ccccc34)o2)o1	> 100	54.5	–	> 100
O=c1c(-c2ccc(O)cc2)coc2cc(O)cc(O)c12	> 100	–	–	> 100
